This note sets out measurements from patent publication US8846949B2, “Pyrrolopyrazoles as N-type calcium channel blockers” (Janssen Pharmaceutica NV, priority 2012, dated 2014).

Where two headings read alike, the source gives them in different places.

For test [1], the target named is T1, N-type calcium channel α1B (Cav2.2), β3 and α2δ subunits (Homo sapiens, UniProt Q00975).
T1 construct: expressed in transfected cells
The experiment in a line: Functional assay, antagonism of N-type calcium channel (FDSS calcium mobilization response to KCl depolarization). Format: cell-based. The following applies: for IC50: HEK stable cell line, 50 mM KCl depolarization, six-point concentration-response; for inhibition at 0.33 µM: 0.33 μM compound, FDSS, 50 mM KCl. The gist of the method: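 HEK cells stably co-expressing α1B (Cav2.2), β3 and α2δ subunits were loaded with calcium dye, preincubated with compound for 5 min, then depolarized with 50 mM KCl and read for 3 min by FDSS fluorescence. IC50 from six-point curves, normalized to KCl maximum and buffer minimum.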
On the technique in general: Calcium assays in cells follow changes in intracellular calcium, usually with a dye or a luminescent sensor.

A further test concerns the target T2, N-type calcium channel (Homo sapiens, UniProt Q00975).
T2 construct: expressed in transfected cells
The experiment in a line: Automated electrophysiology assay (QPatch-HT whole-cell patch clamp). It counts as cell-based. The procedure: Cells were grown in T175 flasks to 50%-90% confluence. At the time of use, cells were enzymatically treated with Detachin (Genlantis, San Diego, Calif. USA), centrifuged, rinsed, and resuspended in 293 SFM II media (Life Technologies, Grand Island, N.Y. U.S.A.) supplemented with 25 mM HEPES (Sigma-Aldrich, St. Louis, Mo. U.S.A.) to a concentration of 2-3×10^6 cells/mL. Cells were added to the automated cell preparation station on the QPatch-HT (Sophion Biosciences, North Brunswick, N.J. U.S.A.), and following a 10- to 30-min recovery period with gentle stirring, the assay protocol was initiated. During the automated cell preparation, cells were collected, centrifuged and resuspended in an extracellular (EC) solution containing 132 mM NaCl, 1.8 mM CaCl2, 5.4 mM KCl, 0.8 mM MgCl2, 10 mM glucose, and 10 mM HEPES (pH=7.4), adjusted with sucrose to approximately 315 m0sm. The QPlate was primed with an intracellular solution containing 135 mM CsCl, 10 mM EGTA, 4 MgATP, 0.3 NaGTP, and 20 mM HEPES (pH=7.2), adjusted to approximately 290 m0sm with deionized water and the EC solution. Cells were added to the prepared QPlate wells by robotic pipettes of the QPatch-HT.
For cells determined to be in stable whole-cell patch clamp, the EC solution was replaced with a barium (Ba)/triethylammonium (TEA) solution containing 140 mM TEA-Cl, 10 mM BaCl2, 0.8 mM MgCl2, 10 mM glucose and 10 mM HEPES (pH=7.4). High (40 mM) BaCl2 concentrations were made with adjustments to TEA-C1 (90 mM) to maintain the osmolarity. From a resting potential of −80 mV, a train of depolarizing pulses (15 pulses at 5 Hz, +20 mV) was delivered to the cell once every 30 sec for eight trains (4 min total), and the resulting currents were measured during a control period (no compound). This protocol was repeated for each subsequent addition of control buffer with or without compound (three periods total, each with four trains). The current generated in the 1st and 15th pulses of the last train of each period in the presence of each drug concentration was normalized to the current generated during the control period at the respective pulses (representing low- and high-frequency stimulation, respectively). Data from both the second and third drug application periods were analyzed for each cell. A final addition of Ba/TEA solution containing 60-100 μM CdCl2 was made to block all N-type current and to “zero” the currents for each cell. All buffer/compound additions were made using a “spitting” feature of the QPatch-HT, which added three repetitions of 5 μL solution at the beginning of each recording period.
To examine closed-state inactivation, cells were subjected to a channel-activating 50-msec depolarizing step pulse from −80 to +10 mV, followed by a 5-sec nonactivating step to voltages ranging from −130 to −60 mV in 10 mV increments and then a 50-ms step from −80 to +10 mV to assess the remaining current. Currents from the activating voltage pulse were normalized to the peak value of the test pulse following the −130 mV step and fit to a Boltzman equation to obtain the V1/2. Roscovitine (Sigma-Aldrich) was prepared as a 100 mM stock in dimethyl sulfoxide and diluted to the indicated working concentrations. […]. Compounds of Formula (I) were diluted first into dimethyl sulfoxide and then into 10% pluronic F-127 in water (Life Technologies), sonicated for 1 min and diluted into EC buffer. Vehicle controls were run in parallel in all experiments.
Unless otherwise indicated, statistics for comparing among electrophysiological results utilized a one-way analysis of variance with Fisher's least squares determination test for pair-wise comparison.
(In general: Patch clamp records ionic current or voltage across a cell membrane.)

Setting [2] is: 1 μM, low frequency (1st pulse of train), read-out: QPatch at Low Frequency % Inhibition.
[3] abbreviates: 1 μM, high frequency (15th pulse of train, 5 Hz), read-out: QPatch at High Frequency % Inhibition.
The mark [4] stands for this setting: high frequency (15th pulse of train, 5 Hz), read-out: QPatch at High Frequency % Inhibition.
[5] abbreviates: low frequency (1st pulse of train), read-out: QPatch at Low Frequency % Inhibition.

T2 sequence (Q00975 whole entry): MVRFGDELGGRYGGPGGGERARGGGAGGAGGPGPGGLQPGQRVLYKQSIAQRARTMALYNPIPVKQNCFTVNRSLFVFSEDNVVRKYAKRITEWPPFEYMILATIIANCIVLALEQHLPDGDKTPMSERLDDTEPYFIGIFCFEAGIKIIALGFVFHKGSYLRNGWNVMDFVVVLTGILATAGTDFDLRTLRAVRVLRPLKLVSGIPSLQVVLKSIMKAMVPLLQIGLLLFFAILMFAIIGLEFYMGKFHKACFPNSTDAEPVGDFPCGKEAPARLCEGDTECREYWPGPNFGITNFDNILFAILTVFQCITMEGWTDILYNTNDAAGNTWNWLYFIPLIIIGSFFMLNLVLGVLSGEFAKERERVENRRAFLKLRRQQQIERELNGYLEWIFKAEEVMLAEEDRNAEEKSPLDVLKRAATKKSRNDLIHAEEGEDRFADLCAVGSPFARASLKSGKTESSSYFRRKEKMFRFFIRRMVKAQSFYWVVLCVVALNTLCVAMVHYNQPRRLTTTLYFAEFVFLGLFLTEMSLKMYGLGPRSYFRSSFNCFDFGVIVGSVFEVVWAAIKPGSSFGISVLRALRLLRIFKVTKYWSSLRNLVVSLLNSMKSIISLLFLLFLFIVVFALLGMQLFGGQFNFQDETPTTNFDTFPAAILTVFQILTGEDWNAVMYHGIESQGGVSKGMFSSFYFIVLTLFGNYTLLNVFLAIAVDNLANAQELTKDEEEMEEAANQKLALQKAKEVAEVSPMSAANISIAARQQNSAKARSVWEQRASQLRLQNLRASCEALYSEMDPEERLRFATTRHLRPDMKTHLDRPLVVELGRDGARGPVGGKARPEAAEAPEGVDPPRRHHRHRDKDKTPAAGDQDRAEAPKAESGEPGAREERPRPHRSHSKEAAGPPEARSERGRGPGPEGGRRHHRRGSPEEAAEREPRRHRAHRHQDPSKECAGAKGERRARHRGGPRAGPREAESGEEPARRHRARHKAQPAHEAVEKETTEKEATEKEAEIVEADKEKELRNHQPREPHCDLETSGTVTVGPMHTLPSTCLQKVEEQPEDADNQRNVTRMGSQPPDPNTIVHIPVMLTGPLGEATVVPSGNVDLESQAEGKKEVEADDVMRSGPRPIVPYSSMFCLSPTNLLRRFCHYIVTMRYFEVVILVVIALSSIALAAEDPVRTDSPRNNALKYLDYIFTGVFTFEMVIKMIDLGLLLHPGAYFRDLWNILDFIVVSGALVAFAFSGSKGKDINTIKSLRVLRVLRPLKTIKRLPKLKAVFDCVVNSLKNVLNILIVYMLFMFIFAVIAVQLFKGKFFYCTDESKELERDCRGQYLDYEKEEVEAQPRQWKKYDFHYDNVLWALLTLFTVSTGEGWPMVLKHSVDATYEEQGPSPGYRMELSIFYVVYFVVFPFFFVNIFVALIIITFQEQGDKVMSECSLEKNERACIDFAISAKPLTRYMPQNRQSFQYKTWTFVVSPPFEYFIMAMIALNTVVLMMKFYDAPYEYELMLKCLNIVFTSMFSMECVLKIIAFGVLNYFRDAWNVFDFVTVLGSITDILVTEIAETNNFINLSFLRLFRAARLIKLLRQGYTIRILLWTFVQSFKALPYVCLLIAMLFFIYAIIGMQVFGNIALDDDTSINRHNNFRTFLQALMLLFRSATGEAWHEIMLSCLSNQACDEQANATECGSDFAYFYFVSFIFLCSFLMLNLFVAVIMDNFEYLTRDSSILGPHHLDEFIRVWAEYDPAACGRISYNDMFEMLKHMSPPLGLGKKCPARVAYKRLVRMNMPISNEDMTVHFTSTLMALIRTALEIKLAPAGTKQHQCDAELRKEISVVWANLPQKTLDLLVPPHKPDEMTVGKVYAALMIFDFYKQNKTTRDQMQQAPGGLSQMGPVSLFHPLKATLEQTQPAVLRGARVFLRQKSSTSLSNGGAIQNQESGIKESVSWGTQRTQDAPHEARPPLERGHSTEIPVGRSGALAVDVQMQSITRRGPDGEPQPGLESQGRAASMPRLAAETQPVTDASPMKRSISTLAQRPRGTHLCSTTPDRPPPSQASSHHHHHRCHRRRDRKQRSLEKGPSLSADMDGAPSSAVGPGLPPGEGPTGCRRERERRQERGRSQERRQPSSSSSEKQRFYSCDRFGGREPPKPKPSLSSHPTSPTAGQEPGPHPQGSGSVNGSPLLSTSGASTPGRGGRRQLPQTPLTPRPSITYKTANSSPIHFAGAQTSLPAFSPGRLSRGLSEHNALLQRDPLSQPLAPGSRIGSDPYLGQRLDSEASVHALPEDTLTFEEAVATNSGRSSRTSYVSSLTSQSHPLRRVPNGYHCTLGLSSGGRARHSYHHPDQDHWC
T2 sequence (P54284 whole entry partner): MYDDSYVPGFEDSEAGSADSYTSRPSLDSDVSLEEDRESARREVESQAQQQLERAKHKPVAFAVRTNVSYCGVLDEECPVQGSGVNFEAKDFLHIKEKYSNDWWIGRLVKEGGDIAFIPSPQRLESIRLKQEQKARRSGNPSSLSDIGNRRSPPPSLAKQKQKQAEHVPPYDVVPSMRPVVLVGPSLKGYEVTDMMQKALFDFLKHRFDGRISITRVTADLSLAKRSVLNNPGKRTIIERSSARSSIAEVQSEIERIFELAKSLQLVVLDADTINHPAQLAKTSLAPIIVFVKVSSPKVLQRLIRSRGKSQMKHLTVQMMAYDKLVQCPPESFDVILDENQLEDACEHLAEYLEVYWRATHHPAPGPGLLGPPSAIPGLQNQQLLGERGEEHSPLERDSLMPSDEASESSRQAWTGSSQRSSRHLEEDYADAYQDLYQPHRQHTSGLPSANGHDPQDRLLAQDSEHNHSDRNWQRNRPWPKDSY
T2 sequence (P54289 25-956 partner limits assumed): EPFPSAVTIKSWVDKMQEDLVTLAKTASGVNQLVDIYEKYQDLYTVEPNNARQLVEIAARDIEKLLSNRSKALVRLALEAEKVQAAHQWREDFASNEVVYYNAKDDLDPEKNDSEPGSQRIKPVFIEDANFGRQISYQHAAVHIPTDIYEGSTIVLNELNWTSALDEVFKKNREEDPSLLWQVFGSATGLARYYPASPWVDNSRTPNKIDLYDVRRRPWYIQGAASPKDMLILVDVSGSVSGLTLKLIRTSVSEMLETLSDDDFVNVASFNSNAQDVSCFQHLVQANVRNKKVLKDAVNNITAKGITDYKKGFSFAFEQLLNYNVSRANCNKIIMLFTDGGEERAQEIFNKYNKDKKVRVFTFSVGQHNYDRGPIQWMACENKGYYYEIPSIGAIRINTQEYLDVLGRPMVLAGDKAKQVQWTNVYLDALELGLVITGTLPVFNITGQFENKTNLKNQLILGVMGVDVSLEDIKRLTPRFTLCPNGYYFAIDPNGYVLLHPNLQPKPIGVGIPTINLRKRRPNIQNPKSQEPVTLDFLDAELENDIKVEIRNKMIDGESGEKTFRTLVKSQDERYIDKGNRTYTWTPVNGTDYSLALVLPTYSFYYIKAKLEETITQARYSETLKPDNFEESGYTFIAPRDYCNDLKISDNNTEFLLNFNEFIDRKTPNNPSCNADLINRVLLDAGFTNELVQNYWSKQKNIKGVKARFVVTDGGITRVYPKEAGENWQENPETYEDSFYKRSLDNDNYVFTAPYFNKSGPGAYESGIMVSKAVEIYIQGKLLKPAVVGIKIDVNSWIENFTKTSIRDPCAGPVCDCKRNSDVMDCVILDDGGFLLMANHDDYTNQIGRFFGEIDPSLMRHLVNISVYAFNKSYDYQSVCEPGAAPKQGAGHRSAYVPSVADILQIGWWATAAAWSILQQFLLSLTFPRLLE
T2 sequence (P54289 957-1103 partner limits assumed): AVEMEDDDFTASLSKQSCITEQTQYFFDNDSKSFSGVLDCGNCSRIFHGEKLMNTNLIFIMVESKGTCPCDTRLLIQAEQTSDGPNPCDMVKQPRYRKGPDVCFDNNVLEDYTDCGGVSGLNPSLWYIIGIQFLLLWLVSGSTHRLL
T1 sequence (Q00975 whole entry): as the sequence (Q00975 whole entry) above
T1 sequence (P54284 whole entry partner): as the sequence (P54284 whole entry partner) above
T1 sequence (P54289 25-956 partner limits assumed): as the sequence (P54289 25-956 partner limits assumed) above
T1 sequence (P54289 957-1103 partner limits assumed): as the sequence (P54289 957-1103 partner limits assumed) above

One may read the IC50 as the concentration needed to halve the response being measured. What is called inhibition is the relative decrease from the control value, in per cent. `FC(F)(F)Oc1ccccc1-n1nc2c(c1-c1ccc(Cl)cc1)CN(c1ccc3nc(Cl)ccc3c1)C2` [Cpd 27, 2-Chloro-6-[3-(4-chlorophenyl)-2-[2-(trifluoromethoxy)phenyl]-2,6-dihydropyrrolo[3,4-c]pyrazol-5(4H)-yl]quinoline]: the half-maximal inhibitory concentration (IC50) in test [1] was determined as 93 nM. In addition, the inhibition at 1 µM at N-type calcium channel (setting [2]) is -1%.
As for `CCCC(C)S(=O)(=O)N1Cc2nn(-c3ccc(C)cc3OC)c(-c3ccc(Cl)cc3)c2C1` (stereo not drawn) [Cpd 76, 3-(4-Chlorophenyl)-2-(2-methoxy-4-methylphenyl)-5-[(1-methylbutyl)sulfonyl]-2,4,5,6-tetrahydropyrrolo[3,4-c]pyrazole], in test [1], the inhibition at 0.33 µM worked out at 90% and the IC50 turned out to be 21 nM. For the same compound, on N-type calcium channel (setting [3]), the inhibition at 1 µM amounted to 30%. For the same compound, on N-type calcium channel (setting [2]), the inhibition at 1 µM was -3%.
As for `CC(C)(C)OC(=O)NCC(=O)N1Cc2nn(-c3ccccc3OC(F)(F)F)c(-c3ccc(Cl)cc3)c2C1` [Cpd 22, tert-Butyl{2-[3-(4-chlorophenyl)-2-[2-(trifluoromethoxy)phenyl]-2,6-dihydropyrrolo[3,4-c]pyrazol-5(4H)-yl]-2-oxoethyl}carbamate], the IC50 in test [1] came out at 240 nM. For the same compound, the values for the inhibition at 1 µM at N-type calcium channel (setting [3]) and on N-type calcium channel (setting [2]) were 28% and 13%, respectively.
For `CCOc1ccccc1-n1nc2c(c1-c1ccc(Cl)cc1)CN(S(=O)(=O)C1CCCC1)C2` [Cpd 51, 3-(4-Chlorophenyl)-5-(cyclopentylsulfonyl)-2-(2-ethoxyphenyl)-2,4,5,6-tetrahydropyrrolo[3,4-c]pyrazole], the IC50 in test [1] stood at 5 nM. Besides, the values for the inhibition at 0.1 µM at N-type calcium channel (setting [4]) and on N-type calcium channel (setting [5]) were 47% and 37%, respectively.
The corresponding values for `CCN(CC)S(=O)(=O)N1Cc2nn(-c3ccccc3OC)c(-c3ccc(Cl)cc3)c2C1` [Cpd 56, 3-(4-Chlorophenyl)-N,N-diethyl-2-(2-methoxyphenyl)-2,6-dihydropyrrolo[3,4-c]pyrazole-5(4H)-sulfonamide] are 3 nM, 36% and 28%.
Take `CC1CCN(S(=O)(=O)N2Cc3nn(-c4cccc5c4OCO5)c(-c4ccc(Cl)cc4)c3C2)CC1` [Cpd 83, 2-(1,3-Benzodioxol-4-yl)-3-(4-chlorophenyl)-5-[(4-methylpiperidin-1-yl)sulfonyl]-2,4,5,6-tetrahydropyrrolo[3,4-c]pyrazole]: in test [1], the inhibition at 0.33 µM was determined as 92% and the half-inhibitory concentration (IC50) is 20 nM. Also, the inhibition at 0.1 µM on N-type calcium channel (setting [4]) was 27%. The inhibition at 0.1 µM at N-type calcium channel (setting [5]) was found to be 12%.
Regarding `COc1ccccc1-n1nc2c(c1-c1ccc(Cl)cc1)CN(S(=O)(=O)C1CCCCC1)C2` [Cpd 37, 3-(4-Chlorophenyl)-5-(cyclohexylsulfonyl)-2-(2-methoxyphenyl)-2,4,5,6-tetrahydropyrrolo[3,4-c]pyrazole], the IC50 in test [1] came to 16 nM. In addition, the inhibition at 0.25 µM was 73% at N-type calcium channel (setting [4]) and 61% on N-type calcium channel (setting [5]).
The corresponding values for `COc1ccccc1-n1nc2c(c1-c1ccc(Cl)cc1)CN(S(=O)(=O)CC(F)(F)F)C2` [Cpd 36, 3-(4-Chlorophenyl)-2-(2-methoxyphenyl)-5-[(2,2,2-trifluoroethyl)sulfonyl]-2,4,5,6-tetrahydropyrrolo[3,4-c]pyrazole] are 15 nM, 58% and 42%.
On to `CC(C)S(=O)(=O)N1Cc2nn(-c3ccccc3N(C)C)c(-c3ccc(Cl)cc3)c2C1` [Cpd 88, 2-[3-(4-Chlorophenyl)-5-[(1-methylethyl)sulfonyl]-5,6-dihydropyrrolo[3,4-c]pyrazol-2(4H)-yl]-N,N-dimethylaniline], for which, in test [1], the inhibition at 0.33 µM was determined as 96%. For the same compound, the IC50 in test [1] was 5 nM. Also, the inhibition at 0.1 µM on N-type calcium channel (setting [4]) is 47%; at N-type calcium channel (setting [5]) it was 26%.
In the case of `COc1ccccc1-n1nc2c(c1-c1ccc(Cl)cc1)CN(S(C)(=O)=O)C2` [Cpd 30, 3-(4-Chlorophenyl)-2-(2-methoxyphenyl)-5-(methylsulfonyl)-2,4,5,6-tetrahydropyrrolo[3,4-c]pyrazole], in test [1], the IC50 turned out to be 21 nM. Also, the inhibition at 1 µM on N-type calcium channel (setting [3]) stood at 49%; on N-type calcium channel (setting [2]) it was 28%.
For the compound `COc1ccccc1-n1nc2c(c1-c1ccc(Cl)cc1)CN(S(=O)(=O)N1CCCCC1)C2` [Cpd 62, 3-(4-Chlorophenyl)-2-(2-methoxyphenyl)-5-(piperidin-1-ylsulfonyl)-2,4,5,6-tetrahydropyrrolo[3,4-c]pyrazole], the IC50 in test [1] turned out to be 4 nM. Also, the inhibition at 0.1 µM at N-type calcium channel (setting [4]) was determined as 45%; at N-type calcium channel (setting [5]), 20%.
On to `COc1ccccc1-n1nc2c(c1-c1ccc(Cl)cc1)CN(S(=O)(=O)C1CCCC1)C2` [Cpd 40, 3-(4-Chlorophenyl)-5-(cyclopentylsulfonyl)-2-(2-methoxyphenyl)-2,4,5,6-tetrahydropyrrolo[3,4-c]pyrazole], for which the IC50 in test [1] turned out to be 12 nM. The inhibition at 0.25 µM turned out to be 69% on N-type calcium channel (setting [4]) and 57% at N-type calcium channel (setting [5]).
Consider `COc1ccccc1-n1nc2c(c1-c1ccc(Cl)cc1)CN(C(=O)OC(C)(C)C)C2` [Cpd 28, tert-Butyl 3-(4-chlorophenyl)-2-(2-methoxyphenyl)-2,6-dihydropyrrolo[3,4-c]pyrazole-5(4H)-carboxylate], for which the half-maximal inhibitory concentration (IC50) in test [1] worked out at 73 nM. Further, the inhibition at 1 µM at N-type calcium channel (read-out: QPatch at High Frequency % Inhibition) was found to be 52%; on N-type calcium channel (read-out: QPatch at Low Frequency % Inhibition), 25%.
Regarding `CC(C)S(=O)(=O)N1Cc2nn(-c3ccccc3OC(F)(F)F)c(-c3ccc(Cl)cc3)c2C1` [Cpd 35, 3-(4-Chlorophenyl)-5-[(1-methylethyl)sulfonyl]-2-[2-(trifluoromethoxy)phenyl]-2,4,5,6-tetrahydropyrrolo[3,4-c]pyrazole], in test [1], the IC50 is 27 nM. Further, the inhibition at 0.25 µM at N-type calcium channel (setting [4]) was found to be 42%; on N-type calcium channel (setting [5]), 22%.
For the compound `COc1ccccc1-n1nc2c(c1-c1ccc(Cl)cc1)CN(S(=O)(=O)N1CCCCCC1)C2` [Cpd 55, 5-(Azepan-1-ylsulfonyl)-3-(4-chlorophenyl)-2-(2-methoxyphenyl)-2,4,5,6-tetrahydropyrrolo[3,4-c]pyrazole], the IC50 in test [1] amounted to 7 nM. Also, the figures for the inhibition at 0.1 µM on N-type calcium channel (setting [4]) and on N-type calcium channel (setting [5]) were 54% and 25%, respectively.
Regarding `CCOc1ccccc1-n1nc2c(c1-c1ccc(Cl)cc1)CN(S(=O)(=O)C(C)C)C2` [Cpd 50, 3-(4-Chlorophenyl)-2-(2-ethoxyphenyl)-5-[(1-methylethyl)sulfonyl]-2,4,5,6-tetrahydropyrrolo[3,4-c]pyrazole], in test [1], the IC50 came to 3 nM. In addition, the values for the inhibition at 0.1 µM at N-type calcium channel (setting [4]) and at N-type calcium channel (setting [5]) were 50% and 42%, respectively.
In the case of `COc1ccc(-c2c3c(nn2-c2ccccc2OC)CN(S(=O)(=O)C(C)C)C3)cn1` [Cpd 97, 2-(2-Methoxyphenyl)-3-(6-methoxypyridin-3-yl)-5-[(1-methylethyl)sulfonyl]-2,4,5,6-tetrahydropyrrolo[3,4-c]pyrazole], the inhibition at 0.33 µM in test [1] was determined as 67%. In addition, the half-maximal inhibitory concentration (IC50) in test [1] turned out to be 43 nM. Also, the figures for the inhibition at 1 µM on N-type calcium channel (setting [3]) and at N-type calcium channel (setting [2]) were 60% and 40%, respectively.
